The values below come from PMC11678245, “The Molecular Basis of the Intrinsic and Acquired Resistance to Azole Antifungals in Aspergillus fumigatus” (Journal of Fungi, 2024).

For assay [1], the system named is S. cerevisiae strain ARE (AfCyp51A-6×His, AfCprA2, AfErg6-FLAG). In words: MIC80 susceptibility, strain ARE. The class given is cell-based, Saccharomyces cerevisiae. The protocol:
(§1) The susceptibilities of S. cerevisiae strains to antifungal drugs were determined as minimum growth inhibitory concentration (MIC) values in 200 μL SD pH 6.8 [24]. Serial 2-fold dilutions of 100 μL of azole or control drugs in SD pH 6.8 were prepared in a 96-well microtiter plate. A portion of a 2 mL SD pH 6.8 overnight culture of the test strain was inoculated into 3 mL fresh SD pH 6.8 and incubated for 4 to 6 h at 30 °C to generate logarithmic-phase cells. These cells were then diluted with fresh SD pH 6.8 to OD600nm = 0.01 (3 × 10^4 CFU), and 100 μL of this cell suspension was added to microtiter plate wells. Cell growth after 48 h incubation at 30 °C with shaking at 200 rpm was determined at 600 nm using a BioTek™ Synergy™ 2 multi-Mode microplate reader controlled using Gen5™ Data Analysis Software version 3.16.10 (BioTek Instruments, Winooski, VT, USA). MIC80 values (80% growth inhibition in the presence of the test drug compared with the untreated control) for each yeast construct were determined as technical triplicates repeated three times for three separate clones.

The test system of assay [2] is S. cerevisiae strain BR (AfCyp51B-6×His, AfCprA2-6×His). In words: MIC80 susceptibility, strain BR. It is filed as cell-based. The following applies: Saccharomyces cerevisiae, 48 h, pH 6.8. The protocol:
as §1

For assay [3], the system named is S. cerevisiae strain ARE Y121F (AfCyp51A-6×His Y121F, AfCprA2, AfErg6-FLAG). In words: MIC80 susceptibility, strain Y121F. It is filed as cell-based, Saccharomyces cerevisiae. The protocol:
as §1

Assay [4] concerns S. cerevisiae strain ARE I301T (AfCyp51A-6×His I301T, AfCprA2, AfErg6-FLAG). Put plainly: MIC80 susceptibility, strain I301T. It is filed as cell-based, Saccharomyces cerevisiae. The following applies: for MIC80: ± SD. The protocol: as §1
In another assay the target is T1, AfCYP51B-6×His (Aspergillus fumigatus, UniProt E9QY26).
T1 sequence (E9QY26 1-524): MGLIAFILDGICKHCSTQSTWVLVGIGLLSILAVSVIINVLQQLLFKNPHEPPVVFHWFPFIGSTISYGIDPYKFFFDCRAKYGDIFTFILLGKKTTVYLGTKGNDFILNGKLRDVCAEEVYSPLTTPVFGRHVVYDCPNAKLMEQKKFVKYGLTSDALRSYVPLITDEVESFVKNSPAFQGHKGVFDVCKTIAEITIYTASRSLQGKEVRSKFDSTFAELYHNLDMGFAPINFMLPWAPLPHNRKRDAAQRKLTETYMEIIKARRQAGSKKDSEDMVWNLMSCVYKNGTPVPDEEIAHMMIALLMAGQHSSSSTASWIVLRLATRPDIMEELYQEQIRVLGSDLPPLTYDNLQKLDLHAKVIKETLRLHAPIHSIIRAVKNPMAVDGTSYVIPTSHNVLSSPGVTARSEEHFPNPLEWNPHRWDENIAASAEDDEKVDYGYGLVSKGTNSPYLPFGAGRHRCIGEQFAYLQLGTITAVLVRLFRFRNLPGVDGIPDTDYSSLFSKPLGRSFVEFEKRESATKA
Put plainly: Type II binding of azole drugs (difference spectra). The procedure:
The concentration of AfCYP51A and AfCYP51B, purified using Ni-NTA affinity chromatography and used for the spectrophotometric type I and type II binding assays, was calculated using an extinction co-efficient of λ417nm = 117 mM^−1 cm^−1 applied to the absolute absorption spectrum of the preparations. In addition, the amount of “active” cytochrome P450 enzyme was determined using the carbon monoxide (CO) binding spectra of these preparations.
Type II binding difference spectra were obtained using 1 μM of affinity-purified CYP51 enzymes. VCZ, PCZ, VT-1161, DCZ, and MCF working solutions were prepared in DMSO, while FLC was prepared in Milli-Q water. Azole drugs were added to the sample cuvette, and corresponding amounts of DMSO or Milli-Q water were added to the reference cuvette. Drug binding curves were plotted using the difference spectrum peak and trough detected in the range of 410–425 nm. Dissociation constants (Kd) were determined by nonlinear regression (Levenberg–Marquardt algorithm) of the difference in absorbance between the peak and trough against the azole concentration using a rearrangement of the Morrison equation or the Hill equation [7]. GraphPad Prism 9.2.0 software was used to identify the best fit for the data.

The test system of assay [5] is S. cerevisiae strain ARE T289A (AfCyp51A-6×His T289A, AfCprA2, AfErg6-FLAG). In words: MIC80 susceptibility, strain T289A. The class given is cell-based, Saccharomyces cerevisiae. The following applies: for MIC80: ± SD. The protocol:
as §1

In assay [6] the test system is S. cerevisiae strain ARE Y121F T289A (AfCyp51A-6×His Y121F T289A, AfCprA2, AfErg6-FLAG). Put plainly: MIC80 susceptibility, strain Y121F T289A. The class given is cell-based, Saccharomyces cerevisiae. The protocol: as §1
The subject of assay [7] is S. cerevisiae strain AR (AfCyp51A-6×His, AfCprA2-6×His). In words: MIC80 susceptibility, strain AR. The following applies: Saccharomyces cerevisiae, 48 h, pH 6.8. The class given is cell-based, Saccharomyces cerevisiae. The protocol:
as §1

Assay [8] deals with S. cerevisiae strain ADΔΔ (native ScCYP51). In words: MIC80 susceptibility, host strain ADΔΔ. The class given is cell-based. To be noted: Saccharomyces cerevisiae, Table 2, SD pH 6.8, 48 h, 30 °C. The protocol: as §1
Assay [9] concerns S. cerevisiae strain A (AfCyp51A-6×His, native ScCyp51 retained). Put plainly: MIC80 susceptibility, strain A. It is filed as cell-based. The following applies: Saccharomyces cerevisiae, Table 2, SD pH 6.8, 48 h, 30 °C. The protocol: as §1
For assay [10], the system named is S. cerevisiae strain ADLS overexpressing ScCYP51-6×His. In words: MIC80 susceptibility, strain ADLS. The class given is cell-based, Saccharomyces cerevisiae. The protocol:
as §1

The test system of assay [11] is S. cerevisiae strain BRE (AfCyp51B-6×His, AfCprA2, AfErg6-FLAG). In words: MIC80 susceptibility, strain BRE. It is filed as cell-based, Saccharomyces cerevisiae. To be noted: strain BRE; for MIC80 / MIC: ± SD; for MIC: 48 h. The procedure:
as §1

[12] abbreviates: Saccharomyces cerevisiae, 48 h, pH 6.8.
The mark [13] stands for this setting: Saccharomyces cerevisiae, 48 h, read-out: MIC80.
Where [14] appears, read: Saccharomyces cerevisiae, Table 3, strain ARE, ± SD, read-out: MIC80.
[15] abbreviates: Saccharomyces cerevisiae, Table 3, strain ARE Y121F, ± SD, read-out: MIC80.
Where [16] appears, read: Saccharomyces cerevisiae, Table 3, strain ARE I301T, read-out: MIC80.
Setting [17] is: Saccharomyces cerevisiae, Table 3, strain ARE T289A, read-out: MIC80.
The mark [18] stands for this setting: Saccharomyces cerevisiae, Table 3, strain ARE Y121F T289A, ± SD, read-out: MIC80.
Where [19] appears, read: Saccharomyces cerevisiae, Table 3.
[20] abbreviates: Saccharomyces cerevisiae, Table 3, read-out: MIC80.
Where [21] appears, read: Table 3, strain ARE Y121F, ± SD.
Setting [22] is: Table 3, strain ARE Y121F T289A, ± SD.

“And” between values parts separate entries of the source, which are not always exact repeats. Identical values can stand only once. Like-named read-outs stand apart in the source and are kept apart here.

As for `CC1COC(Cn2cncn2)(c2ccc(Oc3ccc(Cl)cc3)cc2Cl)O1` (stereo not drawn) [DCZ, difenoconazole], the MIC80 was 0.64 ± 0.04 µM in assay [1] (setting [12]); under 0.01 µM in assay [2]; 0.37 ± 0.02 µM in [3] (setting [12]); 0.35 ± 0.06 µM in assay [4] (Saccharomyces cerevisiae, 48 h, pH 6.8, Table 2, strain I301T, SD pH 6.8, 48 h, 30 °C); under 0.01 µM in [5] (Saccharomyces cerevisiae, 48 h, pH 6.8, Table 2, strain T289A, SD pH 6.8, 48 h, 30 °C); 0.92 ± 0.07 µM in assay [6] (setting [12]). Moreover, the MIC80 is 0.07 ± 0.01 µM in [7]; under 0.01 µM in [8]; 0.01 µM in [9]; 0.04 ± 0.02 µM in assay [10] (setting [12]); 0.04 ± 0.01 µM in assay [10] (Table 2, strain ADLS, SD pH 6.8, 48 h, 30 °C, ± SD); under 0.01 µM in [11] (Saccharomyces cerevisiae, Table 2, SD pH 6.8, 48 h, 30 °C, read-out: MIC80). For the same compound, the “increased susceptibility of AfCYP51A Y121F mutant (vs ARE)” value in assay [3] worked out at 2 fold. Moreover, on AfCYP51B-6×His (1 μM enzyme), the “λpeak (type II difference spectrum)” value is 426 nm. The “λtrough (type II difference spectrum)” value at AfCYP51B-6×His (1 μM enzyme) is on record as 410 nm. Also, at AfCYP51B-6×His (1 μM enzyme, Hill equation), the “ΔAmax (type II binding)” value came out at 0.10. On AfCYP51B-6×His (type II binding), the “Hill Number” value came to 1.55. In addition, on AfCYP51B-6×His (type II binding, 1 μM enzyme, Hill equation), binding was put at a Kd of 1760 ± 80 nM. For the same compound, the “greater susceptibility (MIC80) of strain T289A compared with strain ARE” value in [5] worked out at 64 fold. Further, in assay [6], the “increase in resistance (MIC80) of strain Y121F T289A compared with strain ARE” value is recorded as 1.5 fold.
Consider `C[C@@H](c1nc(-c2ccc(C#N)cc2)cs1)[C@](O)(Cn1cncn1)c1cc(F)ccc1F` [IVC, isavuconazole], for which, in assay [1], the “lower susceptibility of strain ARE compared to strain BRE” value is 2 fold. The MIC in [1] (setting [13]) and in [11] (setting [19]) was under 0.0156 µM in each case. Further, the MIC80 came to 0.021 ± 0.007 µM in assay [1] (setting [14]); 0.071 ± 0.014 µM in [3] (setting [15]); 0.0119 ± 0.0028 µM in assay [4] (setting [16]); 0.0102 ± 0.0057 µM in assay [5] (setting [17]); 0.11 ± 0.011 µM in assay [6] (setting [18]); 0.0109 ± 0.003 µM in [11] (setting [20]). Besides, the “increase in resistance (MIC80) of strain Y121F compared with strain ARE” value in [3] is 3- to 5 fold and 3 fold. Also, the “increase in resistance (MIC80) of strain Y121F T289A compared with strain ARE” value in assay [6] is 3- to 5 fold.
As for `OC(Cn1cncn1)(Cn1cncn1)c1ccccc1` [MCC7915], the MIC80 in [1] (Table 3, strain ARE, ± SD) worked out at 427 ± 23 µM; in [3] (setting [21]) it was 180 ± 11 µM; in assay [4] (Table 3, strain ARE I301T) it was 278 ± 45 µM; in assay [5] (Table 3, strain ARE T289A), 248 ± 23 µM; in assay [6] (setting [22]), 219 ± 29 µM; in [11] (Table 3) it was 223 ± 79 µM. Besides, the “reduced susceptibility compared to FLC” value stood at 2.5 fold in assay [1] (strain ARE) and 50 fold in [11].
Consider `OC(Cn1cncn1)(Cn1cncn1)c1ccccc1F` [MCC7916], for which the MIC80 was determined as 120 ± 40 µM in assay [1] (Table 3, strain ARE, ± SD); 80 ± 17 µM in assay [3] (setting [21]); 51 ± 6 µM in assay [4] (Table 3, strain ARE I301T); 52 ± 6 µM in assay [5] (Table 3, strain ARE T289A); 198 ± 41 µM in assay [6] (setting [22]); 21 ± 3 µM in [11] (Table 3).
With `OC(Cn1cncn1)(Cn1cncn1)c1ccc(F)cc1` [MCC7917], the MIC80 was 411 ± 30 µM in [1] (Table 3, strain ARE, ± SD); 179 ± 9 µM in assay [3] (setting [21]); 257 ± 37 µM in [4] (Table 3, strain ARE I301T); 103 ± 11 µM in assay [5] (Table 3, strain ARE T289A); 242 ± 41 µM in assay [6] (setting [22]); 38 ± 11 µM in assay [11] (Table 3).
In the case of `OC(Cn1cncn1)(Cn1cncn1)c1cc(F)ccc1F` [MCC8768], the MIC80 amounted to 354 ± 76 µM in assay [1] (Table 3, strain ARE, ± SD); 324 ± 109 µM in assay [3] (setting [21]); 211 ± 21 µM in assay [4] (Table 3, strain ARE I301T); 106 ± 28 µM in assay [5] (Table 3, strain ARE T289A); 1025 ± 148 µM in assay [6] (setting [22]); 25 ± 8 µM in [11] (Table 3). Besides, the “reduced susceptibility compared to FLC” value was ~ 3 fold in assay [1] (strain ARE), ~ 3 fold in assay [4] (strain I301T), over 6 fold in assay [5] (strain T289A) and over 6 fold in [11].
Turning to `C[C@@H](c1nc(-c2ccc(C#N)cc2)cs1)[C@](O)(Cn1cncn1)c1ccc(F)cc1F` [RVC, ravuconazole], the “lower susceptibility of strain ARE compared to strain BRE” value in assay [1] was 2 fold. Besides, the MIC in assay [1] (setting [13]) and in assay [11] (setting [19]) was under 0.0156 µM throughout. Further, the MIC80 came out at 0.0088 ± 0.0023 µM in assay [1] (setting [14]); 0.047 ± 0.005 µM in assay [3] (setting [15]); 0.0034 ± 0.0015 µM in assay [4] (setting [16]); 0.0032 ± 0.0015 µM in assay [5] (setting [17]); 0.033 ± 0.006 µM in assay [6] (setting [18]); 0.0038 ± 0.0008 µM in [11] (setting [20]). Moreover, the “increase in resistance (MIC80) of strain Y121F compared with strain ARE” value in assay [3] was 3- to 5 fold and 6 fold. Also, the “increase in resistance (MIC80) of strain Y121F T289A compared with strain ARE” value in [6] was 3- to 5 fold.

By MIC80 is commonly meant the lowest concentration that inhibits either 80% of growth or 80% of the strains tested, depending on the study. Usually Kd stands for the equilibrium constant for the complex coming apart.
